Calls of active or inactive are those of the source. The calls are words filed in the database; no cut-off is given here.
Columns and labels:
[1] = target: T1, Prostaglandin G/H synthase 1 (Ovis aries) (UniProt P05979); details: 115 nM
T1 sequence (whole entry): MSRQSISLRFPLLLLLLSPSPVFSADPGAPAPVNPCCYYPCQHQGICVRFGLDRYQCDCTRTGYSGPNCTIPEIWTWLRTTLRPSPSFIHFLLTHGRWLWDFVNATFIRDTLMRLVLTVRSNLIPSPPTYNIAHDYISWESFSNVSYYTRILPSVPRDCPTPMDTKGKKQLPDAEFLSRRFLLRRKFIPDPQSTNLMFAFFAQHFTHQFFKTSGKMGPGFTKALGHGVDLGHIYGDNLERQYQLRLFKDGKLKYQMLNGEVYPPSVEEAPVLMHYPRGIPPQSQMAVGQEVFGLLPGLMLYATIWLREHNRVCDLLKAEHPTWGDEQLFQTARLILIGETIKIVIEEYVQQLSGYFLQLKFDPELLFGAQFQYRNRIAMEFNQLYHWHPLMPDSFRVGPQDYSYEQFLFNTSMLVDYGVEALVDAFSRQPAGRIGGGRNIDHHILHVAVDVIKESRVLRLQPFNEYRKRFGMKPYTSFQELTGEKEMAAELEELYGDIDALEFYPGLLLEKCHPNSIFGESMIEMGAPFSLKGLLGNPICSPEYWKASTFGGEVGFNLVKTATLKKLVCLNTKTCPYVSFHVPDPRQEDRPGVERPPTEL
Description: Inhibition of ovine COX1 under saturated substrate level preincubated at 115 nM for 17 mins by TLC

[2] = target: T2, Prostaglandin G/H synthase 2 (Homo sapiens) (UniProt P35354); test: Inhibition of COX2
T2 sequence (whole entry): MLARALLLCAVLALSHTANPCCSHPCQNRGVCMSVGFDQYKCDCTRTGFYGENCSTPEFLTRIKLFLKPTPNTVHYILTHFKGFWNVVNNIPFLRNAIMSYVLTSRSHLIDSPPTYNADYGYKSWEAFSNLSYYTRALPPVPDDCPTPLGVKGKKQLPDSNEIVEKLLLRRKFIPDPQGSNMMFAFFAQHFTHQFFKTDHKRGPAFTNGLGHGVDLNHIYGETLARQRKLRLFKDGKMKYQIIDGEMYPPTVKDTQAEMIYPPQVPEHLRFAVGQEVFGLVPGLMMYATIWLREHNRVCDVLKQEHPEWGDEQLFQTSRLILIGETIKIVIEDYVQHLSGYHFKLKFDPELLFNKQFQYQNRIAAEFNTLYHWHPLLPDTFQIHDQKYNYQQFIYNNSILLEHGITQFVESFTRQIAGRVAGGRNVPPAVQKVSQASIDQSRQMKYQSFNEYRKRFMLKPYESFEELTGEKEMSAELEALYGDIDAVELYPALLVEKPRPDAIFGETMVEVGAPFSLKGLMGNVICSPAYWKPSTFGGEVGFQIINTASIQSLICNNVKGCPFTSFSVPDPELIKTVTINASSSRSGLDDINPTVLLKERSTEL

inhibition [1] [%] | Activity [2] | SMILES
20 |  | CSc1ccc(/C=C2/C=C(CC(=O)O)c3cc(F)ccc32)cc1
 | inactive | COc1ccc2c(c1)c(CC(=O)O)cn2C(=O)c1ccc(Cl)cc1
75 |  | CSc1ccc(/C=C2/C(C)=C(CC(=O)O)c3cc(F)ccc32)cc1

Reference: ChEMBL document CHEMBL1158428, “The influence of double bond geometry in the inhibition of cyclooxygenases by sulindac derivatives” (Bioorg Med Chem Lett, 2009)
